In patent publication US5298488A, “CM-chitin derivatives and use thereof” (Fuji Photo Film Co., Ltd., priority 1990, dated 1994):
No end group written: not given here. sulfated succinylated CM‑chitin = sulfated succinylated CM-chitin; trimellityl CM‑chitin = trimellityl derivative of CM-chitin

Assays:
[1] = system: fibronectin; assay: Cell adhesion-inhibitory test against fibronectin (competitive assay, number of adhered cells); assay type: cell-based, human; settings: endothelium cells of blood vessel, 37° C., one hour, 0 mg/ml control 160
Source text: (§1) A method for determining the activity of the CM-chitin derivatives of the present invention for inhibiting adhesion of cells to fibronectin or vitronectin will be described below. The competitive assays used herein have widely been employed tin the field of biochemistry and are detailed in, for instance, "Method in Enzymology", 1981, 82, pp. 803-831; and J. P. KOKAI Nos. Hei 1-309682 and Hei 2-174797.
(§2) Commercially available fibroneotin (derived from human; purchased from Seikaqaku Kogyo K. K.) and vitronectin (derived from human; purchased from Funakoshi Co., Ltd.) each was diluted to 1.0 μ1/ml and 2.0 μ1/ml with PBS (NaH2 PO4 0.005 M+NaCl 0.07 M), 0.5 ml of the resulting diluted solution was dispensed into a plastic plate having 24 wells and incubated at 37° C. overnight to perform coating of the plate. Then bovine serum albumin (BSA 1%) was added followed by incubation at 37° C. for one hour for inhibiting the occurrence of nonspecific adsorption, then washing with PBS in the usual manner and sufficient drainage to give an adsorption plate.
(§3) A CM-chitin derivative obtained through lyophilization was diluted with Dulbecco's Modified Eagles Medium (hereunder referred to as "DMEM") to give solutions of the CM-chitin derivative having concentrations of 0, 0.25, 0.5, 1.0 and 1.5 mg/ml respectively. Each of the solutions (0.25 ml) was dispensed to the plate prepared above, 0.25 ml of a suspension of endothelium cells of blood vessel (4×10^6 cells/ml) was added to the plate and incubated at 37° C. for one hour to thus cause cohesion of the cells. The plate was washed three times with DMEM medium to remove non-adhesive cells, then the adhered cells were peeled off with a 0.025% EDTA trypsin solution and stained with a 2% Trypan Blue solution to determine the number of the adhered cells.

[2] = system: vitronectin; assay: Cell adhesion-inhibitory test against vitronectin (competitive assay, number of adhered cells); assay type: cell-based, human; settings: endothelium cells of blood vessel, 37° C., one hour, 0 control 249
Source text: as §1, §2
as §3, with “A CM-chitin derivative obtained through lyophilization was diluted with Dulbecco's Modified Eagles Medium (hereunder referred to as "DMEM") to give solutions of the CM-chitin derivative having concentrations of 0, 0.25, 0.5, 1.0 and 1.5 mg/ml respectively.” left out

[3] = system: human plasma rich in platelet; assay: Platelet coagulation-inhibitory activity in vitro, transmittance by aggregometer; assay type: cell-based; settings: 37° C., 3 minutes preincubation; for Platelet Coagulation-Inhibitory Action IC50, ADP Stimulation: ADP stimulation (50 μM ADP solution); for Platelet Coagulation-Inhibitory Action IC50, Collagen Stimulation: collagen stimulation (200 μg/ml collagen solution)
Experimental: The platelet coagulation-inhibitory effect of the CM-chitin derivative of the present invention was assayed, in vitro, using human plasma rich in platelet. The experimental method will be described below.
To fresh human blood, there was added 1/9 volume of a 3.8% sodium citrate solution, the resulting mixture was centrifuged (1000 rpm; for 10 minutes) and the upper layer was separated as a plasma rich in platelet. A lyophilized CM-chitin derivative was dissolved in physiological saline to give a plurality of solutions having various concentrations ranging from 0 to 1.5 mg/ml. Each of the solutions (25 μ1) was added to 200 µl of the plasma, incubated at 37° C. for 3 minutes, then a 50 μM of ADP (adenosine diphosphate) solution or a 200 μg/ml collagen solution was added to determine the extent of coagulation in terms of transmittance determined by an aggregometer.
Rate of Coagulation Inhibition=(1-T/T .)×100%
T . : transmittance observed when a salt of CM-chitin derivative was not added.
T : transmittance observed when a salt of CM-chitin derivative was added.

[4] = concentration 10 mg/ml (so in the source)
[5] = concentration 50 mg/ml (so in the source)
[6] = concentration 100 mg/ml (so in the source)
[7] = concentration 300 mg/ml (so in the source)

Platelet Coagulation-Inhibitory Action IC50, ADP Stimulation [3] [µg/mL] | Platelet Coagulation-Inhibitory Action IC50, Collagen Stimulation [3] [µg/mL] | Substance | Cell Adhesion-Inhibitory effect Against Fibronectin (number of adhered cells) ([1]; concentration 0.5 mg/ml) [cell/well] | Cell Adhesion-Inhibitory effect Against Fibronectin (number of adhered cells) ([1]; concentration 1.0 mg/ml) [cell/well] | Cell Adhesion-Inhibitory effect Against Fibronectin (number of adhered cells) ([1]; concentration 1.5 mg/ml) [cell/well] | Cell Adhesion-Inhibitory effect Against Fibronectin (number of adhered cells) ([1]; concentration .25 mg/ml) [cell/well] | Cell Adhesion-Inhibitory effect Against Vitronectin (number of adhered cells) [2, 4] [cell/well] | Cell Adhesion-Inhibitory effect Against Vitronectin (number of adhered cells) [2, 5] [cell/well] | Cell Adhesion-Inhibitory effect Against Vitronectin (number of adhered cells) [2, 6] [cell/well] | Cell Adhesion-Inhibitory effect Against Vitronectin (number of adhered cells) [2, 7] [cell/well]
12 | 2 | Sulfated Succinylated CM-Chitin-Gly-Arg-Gly-Asp-Ser ({sulfated succinylated CM‑chitin}-GRGDS) [CM--chitin derivative-16] | 81 | 75 | 50 | 103 | 122 | 81 | 63 | 40
26 | 11 | Trimellityl Derivative of CM-Chitin Arg-Gly-Asp-Ser ({trimellityl CM‑chitin}-RGDS) [CM--chitin derivative-6] | 107 | 93 | 66 | 127 | 133 | 98 | 71 | 56
